Experimental data: patent publication EP2902382A1, “Primary hydroxylamines and uses thereof” (Fundació Institut de Recerca Biomèdica IRB (Barcelona), priority 2014, dated 2015)
pIC50: −log10 of the molar value. Values after ≈ are worked out from the molar mass of the structure shown. Structures can show the parent of a compound that is named as a salt. Where two headings read alike, the source gives them in different places.

What was measured:
Bacillus anthracis = assay: microbe, parasite or virus in culture; type: cell-based, Bacillus anthracis Sterne 7700 pXO1-/pXO2-; settings: 9 h, read-out: MIC (minimum inhibitory concentration)
Staphylococcus aureus = assay: Minimum inhibitory concentration (MIC), microtiter broth dilution method; type: cell-based, Staphylococcus aureus ATCC 12600 (CECT 86); settings: read-out: MIC (minimum inhibitory concentration)
Pseudomonas aeruginosa = assay: as above; type: cell-based, Pseudomonas aeruginosa ATCC 15692 (CECT 4122); settings: read-out: MIC (minimum inhibitory concentration)
Enterococcus faecalis = assay: as above; type: cell-based, Enterococcus faecalis ATCC 19433 (CECT 481); settings: TSB broth, 37°C for 9 h, mean of triplicates
P. aeruginosa = assay: Capacity to inhibit the formation of bacterial biofilms; type: cell-based; settings: 37°C for 48 h without agitation, viable count (cfu/ml), Fig. 1
S. aureus = type: cell-based
[1] = system: murine macrophage J774 cell line; assay: Cytotoxicity, MTT colorimetric cell viability assay; type: cell-based; settings: Mus musculus, J774 macrophages, 24 and 48 h of exposure (time not given), read-out: Cytoxicity (IC50)
Staphylococcus epidermis = assay: Minimum inhibitory concentration (MIC), microtiter broth dilution method; type: cell-based, Staphylococcus epidermidis ATCC 1798 (CECT 231); settings: TSB broth, 37°C for 9 h, mean of triplicates
[2] = TSB broth, 37°C for 9 h, mean of triplicates

ONCCc1ccccc1 [Example 1, N-phenethyl-hydroxylamine]
MIC (Bacillus anthracis): 250 to 500 µM (≈ 34.3 to 68.6 µg/mL)
MIC (Staphylococcus aureus; [2]): 250 to 500 µM (≈ 34.3 to 68.6 µg/mL)
MIC (Pseudomonas aeruginosa; [2]): 500 to 1000 µM (≈ 68.6 to 137 µg/mL)
MIC (Enterococcus faecalis): 1000 to 2000 µM (≈ 137 to 274 µg/mL)
biofilm formation (P. aeruginosa): inhibit
biofilm formation (S. aureus): inhibit
pIC50 [1]: 2.72

COc1ccc(CNO)c(OC)c1 [Example 4, N-(2,4-dimethoxybenzyl)-hydroxylamine]
MIC (Bacillus anthracis): 125 to 250 µM (≈ 22.9 to 45.8 µg/mL)
MIC (Staphylococcus aureus; [2]): 500 to 1000 µM (≈ 91.6 to 183 µg/mL)
MIC (Pseudomonas aeruginosa; [2]): 1000 to 2000 µM (≈ 183 to 366 µg/mL)
MIC (Enterococcus faecalis): 500 to 1000 µM (≈ 91.6 to 183 µg/mL)
MIC (Staphylococcus epidermis): 125 to 250 µM (≈ 22.9 to 45.8 µg/mL)
biofilm formation (P. aeruginosa): inhibit
biofilm formation (S. aureus): inhibit
pIC50 [1]: 2.64

ONCc1ccccc1 [Comp 7, N-Benzyl-hydroxylamine hydrochloride, reference compound]
MIC (Bacillus anthracis): > 4000 µM
MIC (Staphylococcus aureus; 9 h): > 4000 µM
MIC (Pseudomonas aeruginosa; 9 h): > 4000 µM
pIC50 [1]: < 2.40

ONCC1CCCCC1 [Example 2, N-cyclohexylmethyl-hydroxylamine]
MIC (Bacillus anthracis): 250 to 500 µM (≈ 32.3 to 64.6 µg/mL)
MIC (Staphylococcus aureus; [2]): 250 to 500 µM (≈ 32.3 to 64.6 µg/mL)
MIC (Pseudomonas aeruginosa; [2]): 125 to 250 µM (≈ 16.2 to 32.3 µg/mL)
MIC (Enterococcus faecalis): 500 to 1000 µM (≈ 64.6 to 129 µg/mL)
MIC (Staphylococcus epidermis): 250 to 500 µM (≈ 32.3 to 64.6 µg/mL)
biofilm formation (P. aeruginosa): inhibit
biofilm formation (S. aureus): inhibit
pIC50 [1]: 2.88

COc1ccc(CNO)c(C)c1 [Example 5, N-(4-methoxy-2-methylbenzyl)-hydroxylamine]
MIC (Bacillus anthracis): 125 to 625 µM (≈ 20.9 to 105 µg/mL)
MIC (Staphylococcus aureus; [2]): > 4000 µM
MIC (Pseudomonas aeruginosa; [2]): 1000 to 2000 µM (≈ 167 to 334 µg/mL)
MIC (Enterococcus faecalis): 250 to 500 µM (≈ 41.8 to 83.6 µg/mL)
MIC (Staphylococcus epidermis): 250 to 500 µM (≈ 41.8 to 83.6 µg/mL)
pIC50 [1]: 2.66

ONCc1ccc(F)cc1 [Example 3, N-(4-fluorobenzyl)-hydroxylamine]
MIC (Bacillus anthracis): 125 to 625 µM (≈ 17.6 to 88.2 µg/mL)
MIC (Staphylococcus aureus; [2]): 500 to 1000 µM (≈ 70.6 to 141 µg/mL)
MIC (Pseudomonas aeruginosa; [2]): 1000 to 2000 µM (≈ 141 to 282 µg/mL)
MIC (Enterococcus faecalis): 500 to 1000 µM (≈ 70.6 to 141 µg/mL)
MIC (Staphylococcus epidermis): 125 to 250 µM (≈ 17.6 to 35.3 µg/mL)
biofilm formation (P. aeruginosa): inhibit
biofilm formation (S. aureus): inhibit
pIC50 [1]: 2.89

ONCc1cc(C(F)(F)F)cc(C(F)(F)F)c1 [Example 6, N-(3,5-bis-trifluoromethylbenzyl)-hydroxylamine]
MIC (Bacillus anthracis): 125 to 625 µM (≈ 32.4 to 162 µg/mL)
MIC (Staphylococcus aureus; [2]): 250 to 500 µM (≈ 64.8 to 130 µg/mL)
MIC (Pseudomonas aeruginosa; [2]): 1000 to 2000 µM (≈ 259 to 518 µg/mL)
MIC (Enterococcus faecalis): 500 to 1000 µM (≈ 130 to 259 µg/mL)
MIC (Staphylococcus epidermis): 125 to 250 µM (≈ 32.4 to 64.8 µg/mL)
pIC50 [1]: 2.68

COc1cccc(OC)c1CNO [Comp 8, N-(2,6-Dimethoxybenzyl)-hydroxylamine, reference compound]
MIC (Bacillus anthracis): > 4000 µM
MIC (Staphylococcus aureus; [2]): > 4000 µM
MIC (Pseudomonas aeruginosa; [2]): > 4000 µM
